Assays:
MET = molecular target: T1, MET (Homo sapiens, UniProt P08581); assay: Western blot of MET phosphorylation state; format: cell-based; details: NCI-H2228 lysates, IC50 concentrations, 24 h
T1 construct: Western blot analysis of the phosphorylation state of ALK and MET; endogenous in cells; host or cells: NCI-H2228
Protocol: Whereas the signals of pALK and pMET are decreased in the presence of the tested compounds, the overall amount of ALK and MET is not markedly changed.
NCI-H2228 cells were seeded in 6-well plates at a density of 2 × 10^5 cells/well and incubated overnight. […] The cells were then harvested and lysed using RIPA lysis buffer supplemented with protease and phosphatase inhibitors as recommended by the manufacturer. Protein extracts were resolved with SDS-PAGE, transferred to a PVDF membrane, and the respective proteins were detected with specific antibodies (anti-phosphoALK, anti-ALK, anti-phosphoMET, anti-MET, and anti-GADPH) and HRP-conjugated secondary antibodies. The signals were obtained with SignalFire ECL Reagent and recorded with an Amersham680 reader.

NCI-H2228 = assay: MTT cytotoxic/antiproliferative activity, 72 h; format: cell-based, human; details: for IC50: NCI-H2228, MTT, 72 h
CT26 or NCI-H2228 cells = assay: Release of ATP (CLSII bioluminescence assay); format: cell-based; details: IC50 concentrations, 20 h
Protocol: ATP release was analyzed using the CLSII bioluminescence assay kit (Roche) after treatment of CT26 or NCI-H2228 cells with the tested compounds at concentrations corresponding to their respective IC50 values (Figure A).
CT26 and NCI-H2228 cells were seeded in 48-well plates at a density of 5 × 10^4 cells/well and grown overnight. […] Then 50 μL of supernatant from the wells was transferred into a 96-well white plate (Corning) and processed using an ATP bioluminescence assay kit CLSII following the manufacturer’s instructions. Luminescence was measured with a SPARK multimode reader (TECAN).

[1] = Reduction by L-ascorbic acid in phosphate buffer (RP-HPLC); format: physicochemical
Protocol: The reduction of Pt(IV) complexes was performed by reacting with 10 equiv of L-ascorbic acid in 10% DMSO in 100 mM phosphate buffer (pH 7.4) at 37 °C, and was monitored by reverse-phase analytical HPLC. The half-lives for the reduction were calculated from the decreasing peak areas as a function of time.
The reduction of the Pt(IV) complexes was performed in the presence of 10 equiv of L-ascorbic acid (AA) in phosphate buffer (100 mM, pH 7.4) at 37 °C using reverse-phase analytical HPLC. […] The platinum complexes were dissolved in 10% DMSO with 50% MeOH and added to 100 mM phosphate buffer (pH 7.4). […] The samples were injected and stored at 37 °C throughout the experiment.

[2] = Stability in RPMI cell culture medium with serum (HPLC); details: serum
Protocol: Two conditions must be met for Pt(IV) complexes to serve as true prodrugs: they must remain stable in biological fluids and should be activated by reduction within the cancer cells to release the bioactive components in their active form, thereby facilitating the rapid onset of cytotoxic effects. […] The reduction in the area of the HPLC peak of the compounds was monitored as a function of time, and their half-lives were calculated (Table and Figures S26,S27).
The stock solutions were prepared by dissolving the compounds in a 1:9 (v/v) mixture of DMSO and RPMI media. After preparation, the samples were injected and stored at 37 °C throughout the experiment. The final concentration of the complexes used for the experiment is 50–60 μM.

NCI-H2228 cells [3] = assay: Cell cycle distribution (PI, flow cytometry); format: cell-based, human; details: NCI-H2228, 2 × IC50, 48 h
Protocol: The alterations in cell cycle profiles caused by the tested agents in NCI-H2228 cells may offer insight into their anticancer mechanism. To examine these changes, we utilized flow cytometry to analyze the cells treated with the representative agents (Figure and Figure S40).
It appears that the G2/M arrest is a common phenomenon in the crizotinib-containing group of NCI-H2228 cells under the conditions used.
Following 48 h of incubation, the cells were harvested and fixed with 70% ethanol. The next day, the cells were washed with PBS (2×) and stained with propidium iodide (PI) (50 μg mL^–1 with 100 μg mL^–1 RNase A) in Vindel’s solution (10 mM Tris-Cl (pH = 8.0), 10 mM NaCl, 0.1% Triton X-100) for 30 min at 37 °C. Cell cycle distribution was analyzed using flow cytometry (FACS Verse), 3 × 10^4 cells were analyzed following the exclusion of cell aggregates, and the data was analyzed with FCS Express 7 (DeNovo software, Glendale, CA). The results are expressed as MEAN from two experiments.

NCI-H2228 cells [4] = assay: Cell death mode (Annexin V/PI, flow cytometry); format: cell-based, human; details: NCI-H2228, 3 × IC50, 48 h
Text: Flow cytometric analysis was used to assess the mode of cell death induced in NCI-H2228 cells by the tested complexes. Annexin V staining was employed to recognize the externalization of phosphatidyl serine, a feature considered an apoptotic marker. Propidium iodide (PI) was used to stain cells with compromised cell membranes (a sign of necrosis). Staurosporine was included in the experiment as a positive control for apoptosis. […] Apoptosis appears to be the leading mode of cell death in the entire group of tested compounds, with a varying distribution of cell populations between early and late apoptosis.
Staurosporine (4 μM; 2 h) was used as a positive control of apoptosis. The cells were then harvested with trypsin and stained with Annexin V-Pacific Blue conjugate (1:20 dilution) and PI (10 μg mL^–1) for 15 min. The samples were analyzed with flow cytometry (FACS Verse), 3 × 10^4 cells were analyzed following the exclusion of cell aggregates, and the data was analyzed with FCS Express 7 (DeNovo software, Glendale, CA).

CT26 cells = assay: Phagocytosis of treated CT26 cells by J774.A1 macrophages; format: cell-based, murine; details: CT26 treated at IC50 for 24 h, cocultivated 4 h, J774.A1:CT26 1:2
Protocol: Then, the cells in the samples were stained with CellTracker (red CMTPX; Thermo Fisher Scientific). At the same time, J774.A1 macrophages were stained with CellTracker (green CMFDA; ThermoFisher Scientific). […] Following the coincubation, the cells were harvested and analyzed with flow cytometry (BD FACS Verse). Total cell count was normalized to 3 × 10^4 macrophages. The data were analyzed with FCS Express 7 (DeNovo software; Glendale, CA).

[5] = test system: hepatocyte-like cells (HLC); assay: Cytotoxicity in hepatocyte-like cells, sulphorhodamine B assay; format: cell-based; details: hepatocyte-like cells from human pluripotent cells
Protocol: Growth inhibition activity in cancer cell lines was compared with the activity to inhibit the proliferation of normal (noncancerous) cells, namely MRC-5, IMR-90, hTERT-HPNE, and MCF10A cells. Selectivity indexes (SI) were calculated as (IC50 in noncancerous cells)/(average IC50 in cancer cells). […] We further assessed the toxicity of several of the compounds in hepatocyte-like cells (HLC) generated from human pluripotent cells.
Cytotoxicity in hepatocyte-like cells (HLC). STEMdiff Hepatocyte Kit was used to generate HLC from human pluripotent stem cells. Cytotoxicity of several of the tested compounds in HLC was evaluated using the sulphorhodamine B assay.

T1 sequence (P08581 25-1390): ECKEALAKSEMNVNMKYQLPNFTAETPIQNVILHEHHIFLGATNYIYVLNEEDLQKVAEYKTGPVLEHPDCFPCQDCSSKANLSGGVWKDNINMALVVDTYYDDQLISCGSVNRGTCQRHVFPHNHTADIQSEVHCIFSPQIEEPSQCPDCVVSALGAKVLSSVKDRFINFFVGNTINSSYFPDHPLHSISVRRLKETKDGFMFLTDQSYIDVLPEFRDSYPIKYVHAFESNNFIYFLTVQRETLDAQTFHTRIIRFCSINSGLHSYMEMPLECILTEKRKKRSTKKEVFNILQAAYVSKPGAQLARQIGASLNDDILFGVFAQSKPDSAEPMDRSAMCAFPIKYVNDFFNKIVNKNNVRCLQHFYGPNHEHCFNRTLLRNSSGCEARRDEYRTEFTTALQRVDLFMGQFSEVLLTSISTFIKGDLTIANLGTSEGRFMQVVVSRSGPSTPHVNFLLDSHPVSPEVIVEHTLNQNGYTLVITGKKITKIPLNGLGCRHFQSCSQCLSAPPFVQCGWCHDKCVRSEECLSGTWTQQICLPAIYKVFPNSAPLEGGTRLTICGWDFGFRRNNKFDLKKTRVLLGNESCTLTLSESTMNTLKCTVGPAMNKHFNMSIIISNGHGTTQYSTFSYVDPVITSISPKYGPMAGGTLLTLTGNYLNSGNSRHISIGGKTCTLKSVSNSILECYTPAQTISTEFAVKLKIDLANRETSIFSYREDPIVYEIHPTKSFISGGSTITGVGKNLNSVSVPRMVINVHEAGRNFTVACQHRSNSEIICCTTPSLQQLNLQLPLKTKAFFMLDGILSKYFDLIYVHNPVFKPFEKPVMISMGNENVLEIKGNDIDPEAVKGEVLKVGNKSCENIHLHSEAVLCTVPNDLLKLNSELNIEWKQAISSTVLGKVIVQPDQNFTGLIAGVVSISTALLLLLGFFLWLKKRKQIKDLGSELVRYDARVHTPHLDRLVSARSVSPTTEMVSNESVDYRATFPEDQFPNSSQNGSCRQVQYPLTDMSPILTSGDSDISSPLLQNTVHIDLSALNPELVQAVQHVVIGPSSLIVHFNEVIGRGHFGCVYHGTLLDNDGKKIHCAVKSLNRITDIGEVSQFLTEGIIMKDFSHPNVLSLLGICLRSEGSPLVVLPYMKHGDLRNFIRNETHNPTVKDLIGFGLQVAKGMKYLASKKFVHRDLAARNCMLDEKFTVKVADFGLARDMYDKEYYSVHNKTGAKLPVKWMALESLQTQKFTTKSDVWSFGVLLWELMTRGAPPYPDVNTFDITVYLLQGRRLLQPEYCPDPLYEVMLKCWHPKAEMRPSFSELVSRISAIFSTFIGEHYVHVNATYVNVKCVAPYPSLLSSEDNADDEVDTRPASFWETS

Row | SMILES | phosphorylation of MET (MET) | IC50 (NCI-H2228) [µM] | ATP released to the medium relative to nontreated cells (CT26 or NCI-H2228 cells) | solubility in phosphate buffer ([1]; 100 mM phosphate buffer pH 7.4) | IC50(MIX)/IC50(complex) (NCI-H2228; NCI-H2228, MIX3/3 or MIX7/7) | stability half-life (t 1/2) [2] [h] | cell cycle arrest (NCI-H2228 cells [3]) | mode of cell death (NCI-H2228 cells [4]) | double-stained (phagocytotic) population (CT26 cells) | IC50 [5] [µM] | reduction half-life (t 1/2) ([1]; 10 equiv L-ascorbic acid, 10% DMSO in 100 mM phosphate buffer pH 7.4, 37 °C) [h]
1 | N.N.[Cl][Pt][Cl] [cisPt, cisplatin, reference compound] | no visible effect | 2.4 ± 0.7 | did not induce a significant release of ATP | – | – | – | – | – | – | – | –
2 | Cc1cc(Nc2ncc(Cl)c(Nc3ccccc3S(=O)(=O)C(C)C)n2)c(OC(C)C)cc1C1CCN(C(=O)[O][Pt]([Cl])([Cl])[O]C(=O)CCCc2ccccc2)CC1.N.N [compound 7, ctc-[Pt(NH3)2(ceritinib)(PhB)Cl2]] | inhibit the phosphorylation | 0.07 ± 0.01 | 2.7 fold | poor solubility | 6.3 | 37 | majority of the population in cells treated with 7 was in the S phase | apoptotic phenotype | significantly increased | 4 ± 1 | –
3 | CC(Oc1cc(-c2cnn(C3CCN(C(=O)[O][Pt]([Cl])([Cl])[O]C(=O)CCCc4ccccc4)CC3)c2)cnc1N)c1c(Cl)ccc(F)c1Cl.N.N (centres unmarked) [compound 3, ctc-[Pt(NH3)2(crizotinib)(PhB)Cl2]] | – | 0.45 ± 0.09 | – | – | – | 42 | induced arrest in the G2/M phase | apoptotic phenotype | significantly increased | 5 ± 1 | 7.7

From publication PMC12670396, “Crizotinib- or Ceritinib-Conjugated Platinum(IV) Prodrugs As Potent Multiaction Agents Inducing Antiproliferative Effects in 2D and 3D Cancer Cell Models” (Journal of Medicinal Chemistry, 2025)
